Results from patent US9738634B2, “Heterocyclic amide compound and herbicide” (SYNGENTA PARTICIPATIONS AG, priority 2013, dated 2017).

How the values were obtained:
Type in all cases: in vivo
Settings in all cases: treatment dosage 320 g/ha
oval-leafed pondweed [1] = assay: Test Example 2: weedkilling efficacy, growth period weed treatment in the submerged state; C: oval-leafed pondweed
In short: (§1)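 Barnyard grass, bulrush and oval-leafed pondweed sown in alluvial soil under 4 cm flooding, greenhouse 25 to 30° C. At 1-2 leaf stage, water-diluted emulsion applied to the water surface at stated g/ha dosages; effects scored 3 weeks later.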

wheat [2] = assay: Test Example 4: foliar treatment, effect on crop; e: wheat
In short: (§2)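 Seeds are spot-sown into sterilized diluvial soil and covered with about 1.5 cm of soil. After 14 days' greenhouse growth at 25 to 30° C, plants are sprayed on stems and leaves with diluted emulsion at the stated g/ha rate, then scored at 3 weeks.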

barnyard grass [3] = assay: Test Example 3: weedkilling efficacy through soil treatment; F: barnyard grass
In short: (§3)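 Crop and weed responses were judged three weeks after a uniform surface spray of the water-diluted emulsion at the given g/ha rate. Seeds sat beneath about 1.5 cm of sterilized diluvial soil, and boxes stood in a greenhouse at 25 to 30° C.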

wheat [4] = assay: Test Example 3: soil treatment, effect on crop; e: wheat
In short: as §3

transplanted rice = assay: Test Example 1: preemergent weed treatment in the submerged state, effect on crop; a: transplanted rice
In short: (§4)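 Visual scores against set criteria were taken 3 weeks after treatment. Compounds, as diluted emulsions at specified g/ha, went onto the water surface of 4 cm-flooded alluvial soil pots on the day weeds were sown and 2.5-leaf rice was transplanted; greenhouse held 25–30 °C.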

birds-eye speedwell [5] = assay: Test Example 3: weedkilling efficacy through soil treatment; p: birds-eye speedwell
In short: as §3

soybean [6] = assay: Test Example 4: foliar treatment, effect on crop; d: soybean
In short: as §2

soybean [7] = assay: Test Example 3: soil treatment, effect on crop; d: soybean
In short: as §3

fig-leafed goosefoot [8] = assay: Test Example 3: weedkilling efficacy through soil treatment; M: fig-leafed goosefoot
In short: as §3

beet [9] = assay: Test Example 3: soil treatment, effect on crop; f: beet
In short: as §3

Italian ryegrass [10] = assay: Test Example 3: weedkilling efficacy through soil treatment; I: Italian ryegrass
In short: as §3

barnyard grass [11] = assay: Test Example 1: weedkilling efficacy, preemergent weed treatment in the submerged state; A: barnyard grass
In short: as §4

oval-leafed pondweed [12] = assay: Test Example 1: weedkilling efficacy, preemergent weed treatment in the submerged state; C: oval-leafed pondweed
In short: as §4

wild oat [13] = assay: Test Example 3: weedkilling efficacy through soil treatment; G: wild oat
In short: as §3

corn [14] = assay: Test Example 4: foliar treatment, effect on crop; c: corn
In short: as §2

Indian mallow [15] = assay: Test Example 3: weedkilling efficacy through soil treatment; K: Indian mallow
In short: as §3

birds-eye speedwell [16] = assay: Test Example 4: weedkilling efficacy by foliar treatment; p: birds-eye speedwell
In short: as §2

bulrush [17] = assay: Test Example 2: weedkilling efficacy, growth period weed treatment in the submerged state; B: bulrush
In short: as §1

corn [18] = assay: Test Example 3: soil treatment, effect on crop; c: corn
In short: as §3

directly sown rice [19] = assay: Test Example 3: soil treatment, effect on crop; b: directly sown rice
In short: as §3

rapeseed [20] = assay: Test Example 4: foliar treatment, effect on crop; g: rapeseed
In short: as §2

Indian mallow [21] = assay: Test Example 4: weedkilling efficacy by foliar treatment; K: Indian mallow
In short: as §2

chickweed [22] = assay: Test Example 4: weedkilling efficacy by foliar treatment; N: chickweed
In short: as §2

redroot pigweed [23] = assay: Test Example 3: weedkilling efficacy through soil treatment; L: redroot pigweed
In short: as §3

barnyard grass [24] = assay: Test Example 2: weedkilling efficacy, growth period weed treatment in the submerged state; A: barnyard grass
In short: as §1

common wind-grass [25] = assay: Test Example 4: weedkilling efficacy by foliar treatment; J: common wind-grass
In short: as §2

chickweed [26] = assay: Test Example 3: weedkilling efficacy through soil treatment; N: chickweed
In short: as §3

redroot pigweed [27] = assay: Test Example 4: weedkilling efficacy by foliar treatment; L: redroot pigweed
In short: as §2

fig-leafed goosefoot [28] = assay: Test Example 4: weedkilling efficacy by foliar treatment; M: fig-leafed goosefoot
In short: as §2

black-grass [29] = assay: Test Example 4: weedkilling efficacy by foliar treatment; H: black-grass
In short: as §2

barnyard grass [30] = assay: Test Example 4: weedkilling efficacy by foliar treatment; F: barnyard grass
In short: as §2

green foxtail [31] = assay: Test Example 3: weedkilling efficacy through soil treatment; E: green foxtail
In short: as §3

directly sown rice [32] = assay: Test Example 4: foliar treatment, effect on crop; b: directly sown rice
In short: as §2

beet [33] = assay: Test Example 4: foliar treatment, effect on crop; f: beet
In short: as §2

wild oat [34] = assay: Test Example 4: weedkilling efficacy by foliar treatment; G: wild oat
In short: as §2

green foxtail [35] = assay: Test Example 4: weedkilling efficacy by foliar treatment; E: green foxtail
In short: as §2

common wind-grass [36] = assay: Test Example 3: weedkilling efficacy through soil treatment; J: common wind-grass
In short: as §3

crabgrass [37] = assay: Test Example 3: weedkilling efficacy through soil treatment; D: crabgrass
In short: as §3

catchweed = assay: Test Example 4: weedkilling efficacy by foliar treatment; O: catchweed
In short: as §2

rapeseed [38] = assay: Test Example 3: soil treatment, effect on crop; g: rapeseed
In short: as §3

Italian ryegrass [39] = assay: Test Example 4: weedkilling efficacy by foliar treatment; I: Italian ryegrass
In short: as §2

black-grass [40] = assay: Test Example 3: weedkilling efficacy through soil treatment; H: black-grass
In short: as §3

bulrush [41] = assay: Test Example 1: weedkilling efficacy, preemergent weed treatment in the submerged state; B: bulrush
In short: as §4

crabgrass [42] = assay: Test Example 4: weedkilling efficacy by foliar treatment; D: crabgrass
In short: as §2

COc1cc(C(F)(F)F)cc(NC(=O)C(C)(C)N2COC(C)=C(c3ccccc3)C2=O)n1 [B-2-49]
C (oval-leafed pondweed) weedkilling efficacy grade (oval-leafed pondweed [1]): 5 (weed kill ratio 90% or more, (practically complete withering))
e (wheat) effect on crop grade (wheat [2]): 0 (weed kill ratio 5% or less (practically no effect))
F (barnyard grass) weedkilling efficacy grade (barnyard grass [3]): 5 (weed kill ratio 90% or more, (practically complete withering))
e (wheat) effect on crop grade (wheat [4]): 0 (weed kill ratio 5% or less (practically no effect))
a (transplanted rice) effect on crop grade (transplanted rice): 3 (weed kill ratio 40% or more, less than 70%)
P (birds-eye speedwell) weedkilling efficacy grade (birds-eye speedwell [5]): 5 (weed kill ratio 90% or more, (practically complete withering))
d (soybean) effect on crop grade (soybean [6]): 3 (weed kill ratio 40% or more, less than 70%)
d (soybean) effect on crop grade (soybean [7]): 0 (weed kill ratio 5% or less (practically no effect))
M (fig-leafed goosefoot) weedkilling efficacy grade (fig-leafed goosefoot [8]): 3 (weed kill ratio 40% or more, less than 70%)
f (beet) effect on crop grade (beet [9]): 3 (weed kill ratio 40% or more, less than 70%)
I (Italian ryegrass) weedkilling efficacy grade (Italian ryegrass [10]): 5 (weed kill ratio 90% or more, (practically complete withering))
A (barnyard grass) weedkilling efficacy grade (barnyard grass [11]): 5 (weed kill ratio 90% or more, (practically complete withering))
C (oval-leafed pondweed) weedkilling efficacy grade (oval-leafed pondweed [12]): 5 (weed kill ratio 90% or more, (practically complete withering))
G (wild oat) weedkilling efficacy grade (wild oat [13]): 3 (weed kill ratio 40% or more, less than 70%)
c (corn) effect on crop grade (corn [14]): 3 (weed kill ratio 40% or more, less than 70%)
K (Indian mallow) weedkilling efficacy grade (Indian mallow [15]): 1 (weed kill ratio 5% or more, less than 20%)
P (birds-eye speedwell) weedkilling efficacy grade (birds-eye speedwell [16]): 4 (weed kill ratio 70% or more, less than 90%)
B (bulrush) weedkilling efficacy grade (bulrush [17]): 5 (weed kill ratio 90% or more, (practically complete withering))
c (corn) effect on crop grade (corn [18]): 0 (weed kill ratio 5% or less (practically no effect))
b (directly sown rice) effect on crop grade (directly sown rice [19]): 3 (weed kill ratio 40% or more, less than 70%)
g (rapeseed) effect on crop grade (rapeseed [20]): 3 (weed kill ratio 40% or more, less than 70%)
K (Indian mallow) weedkilling efficacy grade (Indian mallow [21]): 4 (weed kill ratio 70% or more, less than 90%)
N (chickweed) weedkilling efficacy grade (chickweed [22]): 3 (weed kill ratio 40% or more, less than 70%)
L (redroot pigweed) weedkilling efficacy grade (redroot pigweed [23]): 4 (weed kill ratio 70% or more, less than 90%)
A (barnyard grass) weedkilling efficacy grade (barnyard grass [24]): 5 (weed kill ratio 90% or more, (practically complete withering))
J (common wind-grass) weedkilling efficacy grade (common wind-grass [25]): 4 (weed kill ratio 70% or more, less than 90%)
N (chickweed) weedkilling efficacy grade (chickweed [26]): 4 (weed kill ratio 70% or more, less than 90%)
L (redroot pigweed) weedkilling efficacy grade (redroot pigweed [27]): 3 (weed kill ratio 40% or more, less than 70%)
M (fig-leafed goosefoot) weedkilling efficacy grade (fig-leafed goosefoot [28]): 3 (weed kill ratio 40% or more, less than 70%)
H (black-grass) weedkilling efficacy grade (black-grass [29]): 3 (weed kill ratio 40% or more, less than 70%)
F (barnyard grass) weedkilling efficacy grade (barnyard grass [30]): 4 (weed kill ratio 70% or more, less than 90%)
E (green foxtail) weedkilling efficacy grade (green foxtail [31]): 5 (weed kill ratio 90% or more, (practically complete withering))
b (directly sown rice) effect on crop grade (directly sown rice [32]): 0 (weed kill ratio 5% or less (practically no effect))
f (beet) effect on crop grade (beet [33]): 3 (weed kill ratio 40% or more, less than 70%)
G (wild oat) weedkilling efficacy grade (wild oat [34]): 3 (weed kill ratio 40% or more, less than 70%)
E (green foxtail) weedkilling efficacy grade (green foxtail [35]): 5 (weed kill ratio 90% or more, (practically complete withering))
J (common wind-grass) weedkilling efficacy grade (common wind-grass [36]): 5 (weed kill ratio 90% or more, (practically complete withering))
D (crabgrass) weedkilling efficacy grade (crabgrass [37]): 5 (weed kill ratio 90% or more, (practically complete withering))
O (catchweed) weedkilling efficacy grade (catchweed): 3 (weed kill ratio 40% or more, less than 70%)
g (rapeseed) effect on crop grade (rapeseed [38]): 3 (weed kill ratio 40% or more, less than 70%)
I (Italian ryegrass) weedkilling efficacy grade (Italian ryegrass [39]): 1 (weed kill ratio 5% or more, less than 20%)
H (black-grass) weedkilling efficacy grade (black-grass [40]): 5 (weed kill ratio 90% or more, (practically complete withering))
B (bulrush) weedkilling efficacy grade (bulrush [41]): 5 (weed kill ratio 90% or more, (practically complete withering))
D (crabgrass) weedkilling efficacy grade (crabgrass [42]): 5 (weed kill ratio 90% or more, (practically complete withering))
